Results taken from patent publication US10351522B2, “Sulfonamide derivative and pharmaceutically acceptable acid addition salt thereof” (UNIVERSITY OF TSUKUBA, priority 2015, dated 2019).
Like-named read-outs stand apart in the source and are kept apart here.

Legend:
[1] = target: T1, human OX1R (Homo sapiens, UniProt O43613); test: Agonist activity against OX1R: intracellular calcium (Fura-2AM, FDSS7000) in CHOOX1R cells; type: cell-based; conditions: relative to orexin-A as full agonist (100%); for Emax at 0.1 µM / Emax at 1 µM / Emax at 10 µM: read-out: Response (%) OX1R
T1 construct: expressed in transfected cells; host or cells: CHO (Chinese hamster ovary) cells, line CHOOX1R, co-expressing NFAT-luciferase
T1 sequence (O43613 1-425): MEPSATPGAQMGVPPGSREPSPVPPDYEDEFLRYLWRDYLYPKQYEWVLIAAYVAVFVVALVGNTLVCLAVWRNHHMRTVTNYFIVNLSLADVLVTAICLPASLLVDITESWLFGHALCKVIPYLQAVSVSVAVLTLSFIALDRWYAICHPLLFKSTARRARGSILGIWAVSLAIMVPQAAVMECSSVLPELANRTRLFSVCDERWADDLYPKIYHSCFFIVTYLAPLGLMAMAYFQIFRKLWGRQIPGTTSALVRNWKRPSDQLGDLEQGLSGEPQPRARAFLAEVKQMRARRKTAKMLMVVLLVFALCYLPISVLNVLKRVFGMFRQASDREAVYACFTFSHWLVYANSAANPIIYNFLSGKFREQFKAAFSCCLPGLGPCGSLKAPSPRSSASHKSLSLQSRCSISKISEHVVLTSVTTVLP
Summary of the method: (§1)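 Response is agonist activity at 0.1, 1.0 or 10 μM compound as a percentage of the orexin-A full-agonist maximum, taken from 340/380 nm Fura-2 ratio changes. Each cell line is CHO constitutively expressing human OX1R or OX2R with NFAT-luciferase, dye-loaded 60 min with 5 μM Fura-2AM; compound range 10^−7–10^−5 M, 1% DMSO.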

[2] = target: T2, human OX2R (Homo sapiens, UniProt O43614); test: Agonist activity against OX2R: intracellular calcium (Fura-2AM, FDSS7000) in CHOOX2R cells; type: cell-based; conditions: relative to orexin-A as full agonist (100%)
T2 construct: expressed in transfected cells; host or cells: CHO (Chinese hamster ovary) cells, line CHOOX2R, co-expressing NFAT-luciferase
T2 sequence (O43614 1-444): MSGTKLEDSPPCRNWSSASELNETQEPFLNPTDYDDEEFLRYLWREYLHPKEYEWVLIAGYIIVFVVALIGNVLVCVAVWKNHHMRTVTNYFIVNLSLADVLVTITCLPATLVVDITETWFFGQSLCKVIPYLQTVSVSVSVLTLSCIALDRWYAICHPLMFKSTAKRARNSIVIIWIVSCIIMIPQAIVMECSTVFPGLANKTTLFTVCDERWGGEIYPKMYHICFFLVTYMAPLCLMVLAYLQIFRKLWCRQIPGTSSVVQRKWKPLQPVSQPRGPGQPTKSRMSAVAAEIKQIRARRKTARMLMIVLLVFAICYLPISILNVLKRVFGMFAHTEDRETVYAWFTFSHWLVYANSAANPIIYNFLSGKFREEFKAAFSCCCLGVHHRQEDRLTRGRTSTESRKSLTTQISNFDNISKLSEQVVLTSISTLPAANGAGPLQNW
Summary of the method: as §1

| Structure (SMILES) | Response (%) OX2R ([2]; test compound 0.1 μM) [%] | Response (%) OX2R ([2]; test compound 1.0 μM) [%] | Response (%) OX2R ([2]; test compound 10 μM) [%] | Response (%) OX1R ([1]; 0.1 μM test compound) [%] | Response (%) OX1R ([1]; 1.0 μM test compound) [%] | Response (%) OX1R ([1]; 10 μM test compound) [%] | Response (%) OX2R ([2]; 0.1 μM test compound) [%] | Response (%) OX2R ([2]; 1.0 μM test compound) [%] | Response (%) OX2R ([2]; 10 μM test compound) [%] | Response (%) OX1R ([1]; test compound 0.1 μM) [%] | Response (%) OX1R ([1]; test compound 1.0 μM) [%] | Response (%) OX1R ([1]; test compound 10 μM) [%] | also measured |
| --- | --- | --- | --- | --- | --- | --- | --- | --- | --- | --- | --- | --- | --- |
| COc1ccc(-c2cccc(C(=O)N(C)C)c2)cc1S(=O)(=O)Nc1cccc(N(CCNC(=O)OC(C)(C)C)Cc2ccccc2)c1 [Example 91, tert-butyl (2-((benzyl)(3-(3′-(dimethylcarbamoyl)-4-methoxy-[1,1′-biphenyl]-3-ylsulfonamido)phenyl)amino)ethyl)carbamate] | <5 | <5 | 35 |  |  |  |  |  |  |  |  |  | Emax at 0.1 µM ([1]; test compound 0.1 μM): < 5%; Emax at 1 µM ([1]; test compound 1.0 μM): < 5%; Emax at 10 µM ([1]; test compound 10 μM): < 5% |
| COc1ccc(-c2cccc(C(=O)N(C)C)c2)cc1S(=O)(=O)Nc1cccc(NC(=O)Nc2cccnc2)c1 [Example 69] |  |  |  | 6 | 6 | 6 | 7 | 90 | 127 |  |  |  |  |
| COc1ccc(-c2cccc(C(=O)N(C)C)c2)cc1S(=O)(=O)Nc1cccc(Nc2ccc3c(c2)OCO3)c1 [Example 36] |  |  |  | <5 | <5 | 10 | <5 | 63 | 93 |  |  |  |  |
| CN(C)C(=O)c1cccc(-c2ccc(Cl)c(S(=O)(=O)Nc3cccc(NC(=O)Nc4cccc(N(C)C)c4)c3)c2)c1 [Example 118] | 11 | 36 | 71 |  |  |  |  |  |  | 9 | 8 | 9 |  |
| COc1ccc(-c2cccc(C(=O)N(C)C)c2)cc1S(=O)(=O)Nc1cccc(NC(=O)Nc2cccc(NC(=NC(=O)OC(C)(C)C)NC(=O)OC(C)(C)C)c2)c1 [Example 64] |  |  |  | <5 | <5 | <5 | <5 | <5 | <5 |  |  |  |  |
| CN(C)C(=O)c1cccc(-c2ccc(O)c(S(=O)(=O)Nc3cccc(NC(=O)Nc4cccc(N(C)C)c4)c3)c2)c1 [Example 115] | <5 | 8 | 62 |  |  |  |  |  |  | <5 | <5 | <5 |  |
| COc1ccc(-c2cccc(C(=O)N(C)C)c2)cc1S(=O)(=O)Nc1cccc(Nc2c(OC)c(=O)c2=O)c1 [Example 79, 4′-methoxy-3′-(N-(3-((2-methoxy-3,4-dioxocyclobut-1-en-1-yl)amino)phenyl)sulfamoyl)-N,N-dimethyl-[1,1′-biphenyl]-3-carboxamide] |  |  |  |  |  |  | <5 | <5 | 51 |  |  |  | Emax at 0.1 µM ([1]; 0.1 μM test compound): < 5%; Emax at 1 µM ([1]; 1.0 μM test compound): < 5%; Emax at 10 µM ([1]; 10 μM test compound): < 5% |
| COc1ccc(C(=O)NCCNC(=O)OC(C)(C)C)cc1S(=O)(=O)Nc1cccc(NC(=O)Nc2cccc(N(C)C)c2)c1 [Example 105] | 9 | 32 | 92 |  |  |  |  |  |  | 8 | 7 | 8 |  |
| COc1ccc(-c2cccc(C(=O)N(C)C)c2)cc1S(=O)(=O)Nc1cccc(NC(=O)c2cccc3ccccc23)c1 [Example 10] |  |  |  | 5 | 6 | 11 | 14 | 80 | 98 |  |  |  |  |
| COc1ccc(-c2cccc(C(=O)N(C)C)c2)cc1S(=O)(=O)Nc1cccc(NS(C)(=O)=O)c1 [Example 89] | 7 | 8 | 31 |  |  |  |  |  |  | <5 | <5 | <5 |  |
| COc1ccc(-c2cccc(C(=O)N(C)C)c2)cc1S(=O)(=O)Nc1cccc(NC(=O)Nc2ccccc2Br)c1 [Example 43] |  |  |  | <5 | <5 | 10 | 102 | 105 | 104 |  |  |  |  |
